Remaining activity data for 1 molecule are collected here from PMC8645336, “Benchmarking a highly selective USP30 inhibitor for enhancement of mitophagy and pexophagy” (Life Science Alliance, 2021).

One assay addresses T1, OTUD6A (Homo sapiens, UniProt Q7L8S5).
T1 sequence (Q7L8S5 1-288): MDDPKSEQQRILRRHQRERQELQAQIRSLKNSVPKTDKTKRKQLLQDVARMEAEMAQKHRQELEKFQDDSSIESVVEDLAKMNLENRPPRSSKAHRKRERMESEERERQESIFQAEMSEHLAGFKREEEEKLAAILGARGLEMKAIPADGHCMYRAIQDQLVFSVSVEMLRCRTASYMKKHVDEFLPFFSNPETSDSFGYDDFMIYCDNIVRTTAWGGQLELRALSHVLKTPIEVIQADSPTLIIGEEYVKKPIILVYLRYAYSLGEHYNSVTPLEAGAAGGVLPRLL
In words: biochemical. Further details: Ubiquigent DUB profiler selectivity panel, remaining enzyme activity as % of control. As to conditions: read-out: % of control remaining. The procedure, abridged:
(§1)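 In YFP-PRKN-overexpressing hTERT-RPE1 cells, 1 h antimycin A plus oligomycin A (1 μM each) with CMPD-39, then Western blot of TOMM20 ubiquitylation. Target engagement: 2 h compound, then 10 min HA-Ub-PA at 37°C, read as USP30 shift. DUB panel (>40 enzymes) screened at 1-100 μM.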

For another assay, the target named is T2, USP36 (Homo sapiens, UniProt Q9P275).
T2 sequence (Q9P275 1-1123): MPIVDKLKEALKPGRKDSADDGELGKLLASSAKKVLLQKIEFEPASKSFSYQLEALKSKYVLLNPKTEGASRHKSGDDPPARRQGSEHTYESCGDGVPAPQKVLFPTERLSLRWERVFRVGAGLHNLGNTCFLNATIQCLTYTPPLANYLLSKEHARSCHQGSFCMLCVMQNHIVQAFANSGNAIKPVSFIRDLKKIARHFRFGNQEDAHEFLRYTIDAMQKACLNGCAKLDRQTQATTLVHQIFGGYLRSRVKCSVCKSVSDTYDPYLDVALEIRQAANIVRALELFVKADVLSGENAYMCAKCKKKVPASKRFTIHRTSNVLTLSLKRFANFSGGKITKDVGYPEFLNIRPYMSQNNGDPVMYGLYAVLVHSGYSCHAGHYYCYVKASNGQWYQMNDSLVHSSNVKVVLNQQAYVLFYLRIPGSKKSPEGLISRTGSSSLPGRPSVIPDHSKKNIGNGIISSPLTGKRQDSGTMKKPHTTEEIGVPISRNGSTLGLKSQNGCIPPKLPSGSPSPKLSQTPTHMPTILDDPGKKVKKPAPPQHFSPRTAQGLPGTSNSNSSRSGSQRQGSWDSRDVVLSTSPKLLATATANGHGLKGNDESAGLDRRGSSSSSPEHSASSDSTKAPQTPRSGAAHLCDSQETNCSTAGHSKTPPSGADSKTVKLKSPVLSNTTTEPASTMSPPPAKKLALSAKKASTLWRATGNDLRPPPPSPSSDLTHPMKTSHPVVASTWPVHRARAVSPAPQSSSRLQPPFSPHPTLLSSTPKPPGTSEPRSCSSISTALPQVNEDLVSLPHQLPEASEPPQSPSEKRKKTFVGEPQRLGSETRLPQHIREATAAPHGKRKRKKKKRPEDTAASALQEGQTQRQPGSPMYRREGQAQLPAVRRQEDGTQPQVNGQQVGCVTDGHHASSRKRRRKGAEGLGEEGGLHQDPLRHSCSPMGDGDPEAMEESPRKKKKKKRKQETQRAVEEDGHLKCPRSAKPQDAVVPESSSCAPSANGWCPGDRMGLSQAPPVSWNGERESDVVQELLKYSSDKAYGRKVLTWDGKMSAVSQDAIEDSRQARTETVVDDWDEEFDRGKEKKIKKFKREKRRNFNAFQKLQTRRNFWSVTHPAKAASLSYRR
In words: biochemical. Set-up: Ubiquigent DUB profiler selectivity panel, remaining enzyme activity as % of control. Conditions: read-out: % of control remaining. The procedure, abridged: as §1

Regarding `CC(C)(C)NS(=O)(=O)c1ccc(NC(=O)[C@H](Cc2ccccc2)NC(=O)c2ccc(F)cc2)cc1` [compound 39, CMPD-39], on OTUD6A, the remaining activity at 1 µM turned out to be 103%, the remaining activity at 10 µM was determined as 99.3% and the remaining activity at 100 µM turned out to be 101%. Also, on USP36, the remaining activity at 1 µM was found to be 110%, the remaining activity at 10 µM is 98.8% and the remaining activity at 100 µM stood at 94.8%.
